The compounds below were run on HT-29 cells (colon cancer cells) (assay: In vitro assay for protection of HT-29 cells from necroptosis (TNFα/Smac mimetic/Z-VAD-FMK, CCK-8)). Conditions: Homo sapiens, Protective Activity Against Necroptosis, TNFα/Smac mimetic/Z-VAD-FMK induced, 24 h.
Type: cell-based
Excerpt: Z′=1−3(SDmin+SDmax)/(AVEmax−AVEmin) • wherein: • Min is the positive control Data, and Max is the negative control DMSO Data. • SD is the standard deviation, and AVE is the average. In Vitro Assay for Protection of HT-29 Cells from Necroptosis:
1) Experimental Materials
DMEM medium was purchased from Gibco; penicillin-streptomycin was purchased from Hyclone; TNFα was purchased from Peprotech; Smac mimetic and Z-VAD-FMK were purchased from Selleck; and CCK-8 was purchased from Medchem Express.
HT-29 cells (colon cancer cells) were cultured in DMEM+10% FBS+penicillin/streptomycin. For the experiment, HT-29 cells in the logarithmic phase were collected and seeded into 96-well plates at a specific density (typically 8×10^3 cells/well for adherent cells). The cells were cultured overnight in an incubator at 37° C. with 5% CO2. On the following day, the test compound was diluted with culture medium to the corresponding concentrations and added into the 96-well plate, with 3 replicate wells for each sample. A solvent control group and a blank control group containing only culture medium were set simultaneously. The spiked cells were induced with a combination of TNFα/Smac mimetic/Z-VAD-FMK for 24 h. Subsequently, 10 μL of CCK8 solution was added to each well, and the cells were incubated in an incubator for 1-3 h. Absorbance was measured at […] using a microplate reader, and the cell necrosis protection rate of the drug was calculated using the following formula:
Cell necrosis protection rate=[(X−C0)/(C−C0)]×100% • where C, C0, and X represent the average absorbance values of the solvent control group, the blank control group, and the drug treatment group, respectively. Finally, a cell viability curve was fitted using Graphpad Prism 5.0 software, and the EC50 value of the test compound for inhibiting necroptosis was calculated.

Row | SMILES | EC50
1 | C[C@H](NC(=O)c1cn(C)c2ccc(-c3ccn4nc(NC(=O)c5ccnc(F)c5)nc4c3)cc12)c1ccc(F)cc1 [Compound 115] | < 1 nM
2 | Cn1cc(C(=O)Nc2nc3cc(-c4ccc5c(c4)c(C(=O)N[C@@H](CF)c4cccc(F)c4)cn5C)ccn3n2)cn1 [Compound 155] | < 1 nM
3 | Cn1cc(C(=O)N[C@@H](CF)c2cccc(F)c2)c2cc(-c3ccn4nc(NC(=O)[C@H]5CCCO5)nc4c3)ccc21 [Compound 183] | < 1 nM
4 | C[C@H](NC(=O)c1cn(C)c2ccc(-c3ccn4nc(NC(=O)CN5CCCOCC5)nc4c3)cc12)c1ccc(F)cc1 [Compound 30] | < 1 nM
5 | C[C@H](NC(=O)c1cn(C)c2ccc(-c3ccn4nc(NC(=O)N5CCOCC5)nc4c3)cc12)c1ccc(F)cc1 [Compound 116] | < 1 nM
6 | C[C@H](NC(=O)c1cn(C)c2ccc(-c3ccn4nc(NC(=O)CN5CCOCC5C(=O)O)nc4c3)cc12)c1ccc(F)cc1 (some centres unmarked) [Compound 33] | 1000 to 10000 nM
7 | C[C@H](NC(=O)c1cn(C)c2ccc(-c3ccn4nc(NC(=O)CN5CCC(O)CC5)nc4c3)cc12)c1ccc(F)cc1 [Compound 6] | < 1 nM
8 | Cn1cc(C(=O)N[C@@H](CF)c2ccc(F)cc2)c2cc(-c3ccn4nc(NCC5CC5)nc4c3)ccc21 [Compound 108] | < 1 nM
9 | Cn1cc(C(=O)N[C@H]2CCCc3cc(F)ccc32)c2cc(-c3ccn4nc(NC(=O)[C@H]5CCCO5)nc4c3)ccc21 [Compound 137] | 10 to 100 nM
10 | CC[C@H](NC(=O)c1cn(C)c2ccc(-c3ccn4nc(NC(=O)CN5CCOCC5)nc4c3)cc12)c1ccc(F)cc1 [Compound 197] | < 1 nM
11 | CN(C(=O)c1cn(C)c2ccc(-c3ccn4nc(NC(=O)C5CC5)nc4c3)cc12)[C@H]1CCc2cc(F)ccc21 [Compound 205] | 1 to 10 nM
12 | C[C@H](NC(=O)c1cn(C)c2ccc(-c3ccn4nc(NC(=O)CN5CCC(F)(F)CC5)nc4c3)cc12)c1ccc(Cl)cc1 [Compound 86] | < 1 nM
13 | Cn1cc(C(=O)N[C@H](c2ccc(F)cc2)C(F)F)c2cc(-c3ccn4nc(NC(=O)C5CC5)nc4c3)ccc21 [Compound 161] | < 1 nM
14 | C[C@H](NC(=O)c1cn(C)c2ccc(-c3ccn4nc(NC(=O)CN5CCOC[C@H]5C)nc4c3)cc12)c1ccc(Cl)cc1 [Compound 81] | < 1 nM
15 | C[C@H](NC(=O)c1cn(C)c2ccc(-c3ccn4nc(NC(=O)CN5CCN(C(=O)OC(C)(C)C)C[C@H]5C)nc4c3)cc12)c1ccc(F)cc1 [Compound 64] | < 1 nM
16 | CC(C)Nc1nc2cc(-c3ccc4c(c3)c(C(=O)N[C@@H](CF)c3ccc(F)cc3)cn4C)ccn2n1 [Compound 99] | < 1 nM
17 | COC1CCN(CC(=O)Nc2nc3cc(-c4ccc5c(c4)c(C(=O)N[C@@H](C)c4ccc(F)cc4)cn5C)ccn3n2)C1 (some centres unmarked) [Compound 19] | < 1 nM
18 | C[C@H](NC(=O)c1nn(C)c2ccc(-c3ccn4nc(NC(=O)c5cnn(C)c5)nc4c3)cc12)c1ccc(F)cc1 [Compound 191] | < 1 nM
19 | CC(C(=O)Nc1nn(C)c2ccc(-c3ccn4nc(NC(=O)CN(C)C)nc4c3)cc12)c1ccc(F)cc1 (centres unmarked) [Compound 180] | 1000 to 10000 nM

Row | SMILES | EC50
20 | Cn1cc(C(=O)Nc2nc3cc(-c4ccc5c(c4)c(C(=O)N4N=CCC4c4ccc(F)cc4)cn5C)ccn3n2)cn1 (centres unmarked) [Compound 171] | 1 to 10 nM
21 | C[C@H](NC(=O)c1cn(C)c2ccc(-c3ccn4nc(NC(=O)CN5CC(F)(F)C5)nc4c3)cc12)c1ccc(Cl)cc1 [Compound 80] | < 1 nM
22 | C[C@H](NC(=O)c1cn(C)c2ccc(-c3ccn4nc(NC(=O)CN5CCC[C@H](O)C5)nc4c3)cc12)c1ccc(F)cc1 [Compound 7] | < 1 nM
23 | C[C@H](NC(=O)c1cn(C)c2ccc(-c3ccn4nc(NC(=O)CN5CCOCC5)nc4c3)cc12)c1ccco1 [Compound 88] | 1 to 10 nM
24 | Cn1cc(C(=O)N2CC(F)CC2c2ccc(F)cc2)c2cc(-c3ccn4nc(NC(=O)C5CCCO5)nc4c3)ccc21 (centres unmarked) [Compound 157] | < 1 nM
25 | C[C@H](NC(=O)c1cn(C)c2ccc(-c3ccn4nc(NC(=O)CN5CC(F)(F)C5)nc4c3)cc12)c1ccc(F)cc1 [Compound 42] | < 1 nM
26 | C[C@H](NC(=O)c1cn(C)c2ccc(-c3ccn4nc(NC(=O)CN5CCCC(CO)C5)nc4c3)cc12)c1ccc(F)cc1 (some centres unmarked) [Compound 44] | 1 to 10 nM
27 | COCCn1cc(C(=O)N[C@@H](CF)c2ccc(F)cc2)c2cc(-c3ccn4nc(NC(=O)CC#N)nc4c3)ccc21 [Compound 215] | 10 to 100 nM
28 | CC(C(=O)Nc1cn(C)c2ccc(-c3ccn4nc(NC(=O)[C@H]5CCCO5)nc4c3)cc12)c1ccc(F)cc1 (some centres unmarked) [Compound 178] | 100 to 1000 nM
29 | Cn1cc(C(=O)N2CCOC[C@@H]2c2ccc(F)cc2)c2cc(-c3ccn4nc(NC(=O)[C@H]5CCCO5)nc4c3)ccc21 [Compound 150] | < 1 nM
30 | Cn1cc(C(=O)Nc2nc3cc(-c4ccc5c(c4)c(C(=O)N[C@@H](CF)c4ccc(F)cc4)nn5C)ccn3n2)cn1 [Compound 187] | < 1 nM
31 | C[C@H](NC(=O)c1cn(C)c2ccc(-c3ccn4nc(NC(=O)CN5CC6CCC(C5)O6)nc4c3)cc12)c1ccc(F)cc1 [Compound 71] | < 1 nM
32 | C[C@H](NC(=O)c1cn(C)c2ccc(-c3ccn4nc(NC(=O)CN5CC(O)CC5=O)nc4c3)cc12)c1ccc(F)cc1 (stereo in doubt) [Compound 3] | 10 to 100 nM
33 | C[C@H](NC(=O)c1nn(C)c2ccc(-c3ccn4nc(NC(=O)N5CCOCC5)nc4c3)cc12)c1ccc(F)cc1 [Compound 195] | < 1 nM
34 | C[C@H](NC(=O)c1cn(C)c2ccc(-c3ccn4nc(NC(=O)CN5CCN(CCO)CC5)nc4c3)cc12)c1ccc(F)cc1 [Compound 70] | < 1 nM
35 | C[C@H](NC(=O)c1cn(C)c2ccc(-c3ccn4nc(NC(=O)CN5C[C@H]6C[C@@H]5CO6)nc4c3)cc12)c1ccc(F)cc1 [Compound 39] | < 1 nM
36 | C[C@@H]1CN(CC(=O)Nc2nc3cc(-c4ccc5c(c4)c(C(=O)N[C@@H](C)c4ccc(F)cc4)cn5C)ccn3n2)C[C@H](C)O1 [Compound 46] | < 1 nM
37 | C[C@H](NC(=O)c1nn(C)c2ccc(-c3ccn4nc(NC(=O)[C@H]5CCCO5)nc4c3)cc12)c1ccc(F)cc1 [Compound 193] | < 1 nM
38 | CCOC(=O)C(=O)Nc1nc2cc(-c3ccc4c(c3)c(C(=O)N[C@@H](C)c3ccc(F)cc3)cn4C)ccn2n1 [Compound 10] | 1 to 10 nM

Row | SMILES | EC50
39 | C[C@H](NC(=O)c1cn(C)c2ccc(-c3ccn4nc(NC(=O)C5(C(=O)O)CC5)nc4c3)cc12)c1ccc(F)cc1 [Compound 31] | 10 to 100 nM
40 | COC1CCN(CC(=O)Nc2nc3cc(-c4ccc5c(c4)c(C(=O)N[C@@H](C)c4ccc(F)cc4)cn5C)ccn3n2)CC1 [Compound 24] | < 1 nM
41 | COCCNCC(=O)Nc1nc2cc(-c3ccc4c(c3)c(C(=O)N[C@@H](C)c3ccc(F)cc3)cn4C)ccn2n1 [Compound 68] | < 1 nM
42 | CC(c1ccc(F)cc1)n1cnc(-c2cn(C)c3ccc(-c4ccn5nc(NC(=O)C6CC6)nc5c4)cc23)n1 (centres unmarked) [Compound 210] | 100 to 1000 nM
43 | C[C@H](NC(=O)c1cn(C)c2ccc(-c3ccn4nc(NC(=O)C(=O)N5CCOCC5)nc4c3)cc12)c1ccc(F)cc1 [Compound 9] | < 1 nM
44 | CC(=O)N1CCN(CC(=O)Nc2nc3cc(-c4ccc5c(c4)c(C(=O)N[C@@H](C)c4ccc(F)cc4)cn5C)ccn3n2)CC1 [Compound 53] | < 1 nM
45 | C[C@H](NC(=O)c1cn(C)c2ccc(-c3ccn4nc(NC(=O)CN5CC[C@@H](O)C5)nc4c3)cc12)c1ccc(F)cc1 [Compound 12] | < 1 nM
46 | C[C@H](NC(=O)c1cn(C)c2ccc(-c3ccn4nc(NC(=O)CN5CCC[C@@H](O)C5)nc4c3)cc12)c1ccc(F)cc1 [Compound 49] | 1 to 10 nM
47 | Cn1cc(C(=O)N2N=CCC2c2ccc(F)cc2)c2cc(-c3ccn4nc(NC(=O)N5CCOCC5)nc4c3)ccc21 (centres unmarked) [Compound 172] | 1 to 10 nM
48 | Cn1cc(C(=O)N[C@@H](CF)c2ccc(F)cc2)c2cc(-c3ccn4nc(NC(=O)C5CC5)nc4c3)ccc21 [Compound 114] | < 1 nM
49 | Cn1cc(C(=O)N[C@H]2CCc3ccc(F)cc32)c2cc(-c3ccn4nc(NC(=O)[C@H]5CCCO5)nc4c3)ccc21 [Compound 121] | < 1 nM
50 | CC(C(=O)Nc1cn(C)c2ccc(-c3ccn4nc(NC(=O)C5CC5)nc4c3)cc12)c1ccc(F)cc1 (centres unmarked) [Compound 177] | 10 to 100 nM
51 | C[C@H](NC(=O)c1cn(C)c2ccc(-c3ccn4nc(NC(=O)C5CC5F)nc4c3)cc12)C(C)(C)C (some centres unmarked) [Compound 92] | 100 to 1000 nM
52 | C[C@H](NC(=O)c1cn(C)c2ccc(-c3ccn4nc(NC(=O)CN5CCOCC5=O)nc4c3)cc12)c1ccc(F)cc1 [Compound 16] | 10 to 100 nM
53 | Cn1cc(C(=O)N2CC(F)CC2c2ccc(F)cc2)c2cc(-c3ccn4nc(NC(=O)C5CC5)nc4c3)ccc21 (centres unmarked) [Compound 156] | < 1 nM
54 | C[C@H](NC(=O)c1cn(C)c2ccc(-c3ccn4nc(NC(=O)CN5C6CCC5COC6)nc4c3)cc12)c1ccc(F)cc1 [Compound 73] | < 1 nM
55 | C[C@H](NC(=O)c1cn(C)c2ccc(-c3ccn4nc(NC(=O)C5CC5)nc4c3)cc12)C(C)(C)C [Compound 93] | 100 to 1000 nM
56 | C[C@H](NC(=O)c1cn(C)c2ccc(-c3ccn4nc(NC(=O)Cn5cccn5)nc4c3)cc12)c1ccc(F)cc1 [Compound 58] | < 1 nM
